Test results from patent US11286251B2, “Matrix metalloproteinase inhibitors and imaging agents, and methods using same” (Yale University, priority 2016, dated 2022).
Entries after “also recorded” stand apart in the source; their conditions may differ. Like-named read-outs stand apart in the source and are kept apart here.

Key:
[1] = system: rhMMPs; test: In vitro MMP binding screens (panel); details: several MMPs
Method: (§1) MMPs were purchased from R&D Systems (Minneapolis, Minn.). MMP inhibition assays were carried out in 50 mM Tris/HCl buffer, pH=6.8, 10 mM CaCl2 at 25° C. […] Titration experiments were carried out to determine active enzyme concentration for each MMP prior to the assay. For each probe, the % of inhibition was determined from five different concentrations in triplicates, chosen to reach a range of 20-80% inhibition.
(§2) The recombinant human MMPs including rhMMP-2, rhMMP-9, and rhMMP-12 obtained from R&D Systems (Minneapolis, Minn., USA) were activated by 1 mM p-aminophenylmercuric acetate (APMA, Sigma) at 37° C. for certain hours according to the manufacturer's instructions. The activated MMPs were diluted in the assay buffer consisting of 50 mM Tris, 10 mM CaCl2, 150 mM NaCl, 0.05% Brij-35 (w/v), pH 7.5 (TCNB). The assays were carried out in 96-well non-binding surface black microplates (Fisher Scientific).
(§3) The solutions were incubated at room temperature for 20 min. 10 μL of the fluorogenic MMP substrate i.e. Mca-KPLGL-Dpa-AR-NH2 (R&D Systems) at 4 different concentrations (such as 50.0 μM, 40.0 μM, 30.0 μM, and 20.0 μM) in assay buffer were added before starting the fluorescence measurements. The kinetics (v) of fluorescence changes were measured at excitation and emission wavelengths of 320 nm and 405 nm for 30 min (1.44 min intervals, sensitivity 100, shaking intensity 4, duration 30 s) by a fluorescent plate reader (BIO-TEK/Synergy HT). The inhibition constants (Ki) of the inhibitor with MMPs were calculated from the mean velocity values using GraphPad Prism 6 by the equation:

[2] = molecular target: rhMMP-13 (Homo sapiens, UniProt P45452); test: MMP inhibition assay, fluorogenic substrate cleavage (Ki); details: read-out: Ki rhMMP-13; mean ± SE
Method: as §1, §2, §3

[3] = molecular target: T1, rhMMP-7 (Homo sapiens, UniProt P09237); test: as above; details: read-out: Ki rhMMP-7; mean ± SE
T1 sequence (P09237 95-267): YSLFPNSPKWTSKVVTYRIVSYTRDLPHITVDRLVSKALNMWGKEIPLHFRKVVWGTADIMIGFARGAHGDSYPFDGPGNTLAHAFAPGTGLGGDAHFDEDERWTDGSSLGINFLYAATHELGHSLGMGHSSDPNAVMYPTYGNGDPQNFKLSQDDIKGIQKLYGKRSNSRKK
Method: as §1, §2, §3

[4] = Aqueous solubility; assay type: physicochemical
[5] = molecular target: rhMMP-12 (Homo sapiens, UniProt P39900); test: MMP inhibition assay, fluorogenic substrate cleavage (Ki)
rhMMP-12, sequence (P39900 106-470): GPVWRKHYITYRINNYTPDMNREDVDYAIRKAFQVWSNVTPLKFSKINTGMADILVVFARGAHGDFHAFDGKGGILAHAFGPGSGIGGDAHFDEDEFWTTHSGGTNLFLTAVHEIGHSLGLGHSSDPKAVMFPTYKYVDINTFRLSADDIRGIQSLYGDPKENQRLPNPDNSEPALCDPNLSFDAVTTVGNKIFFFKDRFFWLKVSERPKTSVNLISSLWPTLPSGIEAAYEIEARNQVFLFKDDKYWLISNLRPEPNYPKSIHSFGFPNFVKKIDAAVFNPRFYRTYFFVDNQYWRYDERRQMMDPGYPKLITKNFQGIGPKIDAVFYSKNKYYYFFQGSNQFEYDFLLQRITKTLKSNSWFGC
Method: as §1, §2, §3

[6] = molecular target: rhMMP-9 (Homo sapiens, UniProt P14780); test: as above
rhMMP-9, sequence (P14780 107-707 limits assumed): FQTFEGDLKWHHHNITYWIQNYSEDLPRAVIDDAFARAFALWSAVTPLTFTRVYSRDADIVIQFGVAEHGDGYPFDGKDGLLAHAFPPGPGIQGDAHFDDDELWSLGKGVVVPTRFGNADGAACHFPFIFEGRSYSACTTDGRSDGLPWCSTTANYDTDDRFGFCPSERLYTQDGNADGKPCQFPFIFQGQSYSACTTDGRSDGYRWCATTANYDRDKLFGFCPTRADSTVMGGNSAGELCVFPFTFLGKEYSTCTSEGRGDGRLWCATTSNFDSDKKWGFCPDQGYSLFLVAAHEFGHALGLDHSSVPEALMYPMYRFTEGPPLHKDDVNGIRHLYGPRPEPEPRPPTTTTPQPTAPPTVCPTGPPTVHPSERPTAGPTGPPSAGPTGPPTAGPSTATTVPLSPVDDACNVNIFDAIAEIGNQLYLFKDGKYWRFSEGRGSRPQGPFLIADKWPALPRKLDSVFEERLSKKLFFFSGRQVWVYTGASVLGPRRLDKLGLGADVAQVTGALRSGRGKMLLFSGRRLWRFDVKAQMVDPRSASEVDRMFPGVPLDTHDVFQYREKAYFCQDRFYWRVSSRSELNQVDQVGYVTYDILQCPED
Method: (§4) MMP inhibition assays were carried out in 50 mM Tris/HCl buffer, pH=6.8, 10 mM CaCl2 at 25° C. […] Titration experiments were carried out to determine active enzyme concentration for each MMP prior to the assay.
as §2
(§5) The solutions were incubated at room temperature for 20 min. 10 μL of the fluorogenic MMP substrate i.e. Mca-KPLGL-Dpa-AR-NH2 (R&D Systems) at 4 different concentrations (such as 50.0 μM, 40.0 μM, 30.0 μM, and 20.0 μM) in assay buffer were added before starting the fluorescence measurements. […] The inhibition constants (Ki) of the inhibitor with MMPs were calculated from the mean velocity values using GraphPad Prism 6 by the equation:

[7] = molecular target: T2, rhMMP-2 (Homo sapiens, UniProt P08253); test: as above
T2 sequence (P08253 110-660): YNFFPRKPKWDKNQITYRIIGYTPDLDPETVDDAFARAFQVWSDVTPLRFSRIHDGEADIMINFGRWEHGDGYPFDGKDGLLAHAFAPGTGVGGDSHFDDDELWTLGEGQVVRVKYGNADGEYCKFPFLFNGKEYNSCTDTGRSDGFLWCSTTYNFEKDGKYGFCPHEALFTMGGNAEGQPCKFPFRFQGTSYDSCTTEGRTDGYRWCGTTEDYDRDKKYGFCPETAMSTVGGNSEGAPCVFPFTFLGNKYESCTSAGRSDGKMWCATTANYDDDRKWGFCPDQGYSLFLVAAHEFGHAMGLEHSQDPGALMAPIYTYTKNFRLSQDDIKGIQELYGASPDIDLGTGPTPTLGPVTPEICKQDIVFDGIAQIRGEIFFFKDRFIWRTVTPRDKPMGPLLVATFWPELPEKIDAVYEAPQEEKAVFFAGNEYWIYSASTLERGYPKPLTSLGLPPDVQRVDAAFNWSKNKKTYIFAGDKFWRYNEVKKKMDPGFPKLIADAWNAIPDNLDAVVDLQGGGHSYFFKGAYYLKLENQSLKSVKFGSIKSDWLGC
Method: as §4, §2, §5

[8] = read-out: Ki rhMMP-12, mean ± SE
[9] = read-out: Ki rhMMP-9, mean ± SE
[10] = read-out: Ki rhMMP-2, mean ± SE

Structure (SMILES) | Ki [2] [nM] | Ki [3] [nM] | Ki [5, 8] [nM] | Ki [6, 9] [nM] | Ki [7, 10] [nM] | MMP binding / inhibition constants (in words) [1] | water solubility (in words) [4] | affinity for rhMMP-12 (in words) [5] | affinity for rhMMP-9 (in words) [6] | affinity for rhMMP-2 (in words) [7] | Ki [5] [nM] | Ki [6] [nM] | Ki [7] [nM]
CC(C)CC1C(=O)NC(C(=O)NC(CCCNC(=N)N)C(=O)NCCNC(=O)c2ccc(NN)nc2)Cc2ccc(cc2)OCCCC1C(=O)NO [Compound 1, (6S,7R,10S)—N^10—((S)-5-guanidino-1-((2-(6-hydrazinylnicotinamido)ethyl)amino)-1-oxopentan-2-yl)-N^6-hydroxy-7-isobutyl-8-oxo-2-oxa-9-aza-1(1,4)-benzenacycloundecaphane-6,10-dicarboxamide] | 16.9 ± 2.7 | 33.2 ± 5 | 2.2 ± 0.5 | 17.4 ± 2.1 | 10.4 | MMP binding profiles similar to the RP805 precursor; also recorded: nanomolar range inhibition constants | good aqueous solubility; also recorded: good water solubility | high affinity | high affinity | high affinity | – | – | –
CC(C)C[C@H]1C(=O)N[C@H](C(=O)O)Cc2ccc(cc2)OCCC[C@@H]1C(=O)NO [Compound 20, (6S,7R,10S)-6-(hydroxycarbamoyl)-7-isobutyl-8-oxo-2-oxa-9-aza-1(1,4)-benzenacycloundecaphane-10-carboxylic acid] | – | – | – | – | – | – | – | – | – | – | 1.7 ± 0.2 | 60.6 ± 11 | 101 ± 12.2

Further lines, with some results ahead:

Ki [2] [nM] | Ki [3] [nM] | Ki [5, 8] [nM] | Ki [6, 9] [nM] | Ki [7, 10] [nM] | Structure (SMILES) | MMP binding / inhibition constants (in words) [1] | water solubility (in words) [4] | affinity for rhMMP-12 (in words) [5] | affinity for rhMMP-9 (in words) [6] | affinity for rhMMP-2 (in words) [7] | Ki [5] [nM] | Ki [6] [nM] | Ki [7] [nM]
– | – | 2.1 ± 0.3 | 8.8 ± 0.8 | 8.6 ± 1.3 | CC(C)CC1C(=O)NC(C(=O)NCCOCCOCCOCCF)Cc2ccc(cc2)OCCCC1C(=O)NO [Compound 17, (6S,7R,10S)—N10-(2-(2-(2-(2-fluoroethoxy)ethoxy)ethoxy)ethyl)-N^6-hydroxy-7-isobutyl-8-oxo-2-oxa-9-aza-1(1,4)-benzenacycloundecaphane-6,10-dicarboxamide] | – | – | – | – | – | – | – | –
15.3 ± 5.4 | 17.1 ± 0.1 | 1 ± 0.2 | 20.4 ± 2 | 5.8 ± 0.4 | CNC(=O)[C@H](CCCNC(=N)N)NC(=O)[C@@H]1Cc2ccc(cc2)OCCC[C@H](C(=O)NO)[C@@H](CC(C)C)C(=O)N1 [Compound 19, (6S,7R,10S)—N10-((S)-5-guanidino-1-(methylamino)-1-oxopentan-2-yl)-N6-hydroxy-7-isobutyl-8-oxo-2-oxa-9-aza-1(1,4)-benzenacycloundecaphane-6,10-dicarboxamide] | MMP binding profiles similar to the RP805 precursor | – | – | – | – | – | – | –
0.3 | 0.4 | – | – | – | CNC(=O)[C@H](Cc1c[nH]c2ccccc12)NC(=O)[C@@H](CC(=O)NO)CC(C)C [GM-6001, reference compound] | – | – | – | – | – | 0.57 | – | –
